ChEMBL document CHEMBL5465560, “Selectivity Literature for EUbOPEN Chemogenomic Library” (2024)
Values belong to the compound of their own block, whether it stands above or below them.

How the values were obtained:
[1] = target: T1, Serine/threonine-protein kinase 3 (Homo sapiens) (UniProt Q13188); assay: Selectivity interaction (Kinase panel (DSF assay)) EUB0001559a STK3
T1 sequence (whole entry): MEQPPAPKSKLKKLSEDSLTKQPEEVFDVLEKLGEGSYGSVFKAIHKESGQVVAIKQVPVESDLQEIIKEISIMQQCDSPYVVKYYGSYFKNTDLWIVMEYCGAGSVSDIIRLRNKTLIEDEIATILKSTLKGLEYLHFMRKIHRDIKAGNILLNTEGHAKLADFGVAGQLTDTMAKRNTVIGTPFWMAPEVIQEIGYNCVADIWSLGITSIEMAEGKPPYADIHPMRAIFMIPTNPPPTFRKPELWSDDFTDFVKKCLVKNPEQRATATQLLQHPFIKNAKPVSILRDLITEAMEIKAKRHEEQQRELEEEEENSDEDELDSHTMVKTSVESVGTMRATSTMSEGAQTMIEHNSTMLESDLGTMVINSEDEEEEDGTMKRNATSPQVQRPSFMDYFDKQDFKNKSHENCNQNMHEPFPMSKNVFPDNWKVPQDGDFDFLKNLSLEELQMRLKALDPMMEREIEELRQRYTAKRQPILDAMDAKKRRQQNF

[2] = target: Phosphatidylinositol 4-phosphate 5-kinase type-1 gamma (Homo sapiens) (UniProt O60331); assay: Selectivity interaction (KinomeScan (DiscoverX)) EUB0000607a PIP5K1C; details: at 10 µM
[3] = target: Calcium/calmodulin-dependent protein kinase kinase 2 (Homo sapiens) (UniProt Q96RR4); assay: Selectivity interaction (KinomeScan (DiscoverX)) EUB0000045b CAMKK2
[4] = target: Calcium/calmodulin-dependent protein kinase type II subunit alpha (Homo sapiens, UniProt Q9UQM7); assay: Selectivity interaction (Upstate Kinase Profiler service (Millipore)) EUB0000056c CAMK2A; details: at 1 µM
[5] = target: Histone-lysine N-methyltransferase KMT5C (Homo sapiens) (UniProt Q86Y97); details: at 10 µM
[6] = target: T2, Serine/threonine-protein kinase NLK (Homo sapiens) (UniProt Q9UBE8); assay: Selectivity interaction (KinomeScan (DiscoverX)) EUB0001049a NLK; details: at 1 µM
T2 sequence (whole entry): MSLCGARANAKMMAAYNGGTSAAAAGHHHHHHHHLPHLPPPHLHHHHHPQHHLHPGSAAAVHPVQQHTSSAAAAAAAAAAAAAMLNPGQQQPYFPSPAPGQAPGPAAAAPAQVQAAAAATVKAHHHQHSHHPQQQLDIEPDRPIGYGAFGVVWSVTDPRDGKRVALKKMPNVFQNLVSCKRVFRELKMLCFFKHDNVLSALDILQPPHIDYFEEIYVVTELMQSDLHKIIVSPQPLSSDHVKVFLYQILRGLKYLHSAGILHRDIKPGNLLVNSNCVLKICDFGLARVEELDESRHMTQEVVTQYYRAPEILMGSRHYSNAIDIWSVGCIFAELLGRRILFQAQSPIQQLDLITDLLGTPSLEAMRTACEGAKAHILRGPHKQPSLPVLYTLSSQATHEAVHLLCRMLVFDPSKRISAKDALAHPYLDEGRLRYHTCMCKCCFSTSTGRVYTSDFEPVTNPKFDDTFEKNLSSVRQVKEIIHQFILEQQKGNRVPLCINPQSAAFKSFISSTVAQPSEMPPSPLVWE

[7] = target: Serine/threonine-protein kinase 35 (Homo sapiens) (UniProt Q8TDR2); assay: Selectivity interaction (KinomeScan (DiscoverX)) EUB0001049a STK35; details: at 1 µM
[8] = target: T3, 5-hydroxytryptamine receptor 2C (Homo sapiens) (UniProt P28335); assay: Selectivity interaction (Panel of kinases, GPCRs, ion channels and transporters (enzymatic assay)) EUB0000223bCl HTR2C
T3 sequence (whole entry): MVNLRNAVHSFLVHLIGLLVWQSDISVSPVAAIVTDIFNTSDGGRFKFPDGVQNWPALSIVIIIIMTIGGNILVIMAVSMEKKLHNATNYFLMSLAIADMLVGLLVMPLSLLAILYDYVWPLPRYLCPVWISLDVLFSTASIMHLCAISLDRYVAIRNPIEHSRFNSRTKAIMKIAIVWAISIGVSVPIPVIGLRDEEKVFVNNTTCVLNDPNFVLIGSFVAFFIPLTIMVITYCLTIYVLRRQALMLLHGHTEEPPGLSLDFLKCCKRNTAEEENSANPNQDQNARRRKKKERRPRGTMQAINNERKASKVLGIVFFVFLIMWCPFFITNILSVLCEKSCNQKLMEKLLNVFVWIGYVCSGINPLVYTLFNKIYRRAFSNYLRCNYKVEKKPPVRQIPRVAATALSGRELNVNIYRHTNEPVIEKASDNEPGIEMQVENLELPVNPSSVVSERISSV

[9] = target: Serine/threonine-protein kinase PLK2 (Homo sapiens, UniProt Q9NYY3); assay: Selectivity interaction (KinomeScan (DiscoverX)) EUB0000666a PLK2; details: at 10 µM
[10] = target: T4, Serine/threonine-protein kinase 17A (Homo sapiens) (UniProt Q9UEE5); assay: Selectivity interaction (LanthaScreen Eu Kinase Binding Assay) EUB0001632a STK17A; details: at 10 µM
T4 sequence (whole entry): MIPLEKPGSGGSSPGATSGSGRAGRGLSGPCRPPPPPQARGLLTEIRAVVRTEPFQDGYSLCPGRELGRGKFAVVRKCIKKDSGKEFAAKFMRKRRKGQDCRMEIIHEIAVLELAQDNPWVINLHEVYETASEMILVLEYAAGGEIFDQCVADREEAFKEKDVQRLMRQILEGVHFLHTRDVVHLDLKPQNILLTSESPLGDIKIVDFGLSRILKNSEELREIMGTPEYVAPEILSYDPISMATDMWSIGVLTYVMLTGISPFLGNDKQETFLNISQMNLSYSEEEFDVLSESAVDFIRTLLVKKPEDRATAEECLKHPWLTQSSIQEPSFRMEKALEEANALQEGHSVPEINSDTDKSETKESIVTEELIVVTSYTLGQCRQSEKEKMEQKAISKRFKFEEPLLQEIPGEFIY

Chain of Calcium/calmodulin-dependent protein kinase kinase 2 (Homo sapiens) (Q96RR4 2-588 limits assumed): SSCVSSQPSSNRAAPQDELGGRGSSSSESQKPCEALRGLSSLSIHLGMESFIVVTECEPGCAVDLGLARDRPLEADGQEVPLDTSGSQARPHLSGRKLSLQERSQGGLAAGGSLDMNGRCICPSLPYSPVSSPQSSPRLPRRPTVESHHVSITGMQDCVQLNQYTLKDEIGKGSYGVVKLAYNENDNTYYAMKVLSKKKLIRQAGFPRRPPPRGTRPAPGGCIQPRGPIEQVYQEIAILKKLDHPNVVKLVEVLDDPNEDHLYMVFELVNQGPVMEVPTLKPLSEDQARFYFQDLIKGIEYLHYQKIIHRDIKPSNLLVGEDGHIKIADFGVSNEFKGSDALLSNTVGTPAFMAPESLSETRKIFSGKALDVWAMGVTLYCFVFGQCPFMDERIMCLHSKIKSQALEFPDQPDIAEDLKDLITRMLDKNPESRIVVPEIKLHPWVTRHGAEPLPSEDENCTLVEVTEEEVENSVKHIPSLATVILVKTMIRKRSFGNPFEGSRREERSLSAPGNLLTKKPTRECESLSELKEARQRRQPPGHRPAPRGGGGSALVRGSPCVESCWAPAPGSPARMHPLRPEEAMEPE
Chain of Phosphatidylinositol 4-phosphate 5-kinase type-1 gamma (Homo sapiens) (O60331 whole entry): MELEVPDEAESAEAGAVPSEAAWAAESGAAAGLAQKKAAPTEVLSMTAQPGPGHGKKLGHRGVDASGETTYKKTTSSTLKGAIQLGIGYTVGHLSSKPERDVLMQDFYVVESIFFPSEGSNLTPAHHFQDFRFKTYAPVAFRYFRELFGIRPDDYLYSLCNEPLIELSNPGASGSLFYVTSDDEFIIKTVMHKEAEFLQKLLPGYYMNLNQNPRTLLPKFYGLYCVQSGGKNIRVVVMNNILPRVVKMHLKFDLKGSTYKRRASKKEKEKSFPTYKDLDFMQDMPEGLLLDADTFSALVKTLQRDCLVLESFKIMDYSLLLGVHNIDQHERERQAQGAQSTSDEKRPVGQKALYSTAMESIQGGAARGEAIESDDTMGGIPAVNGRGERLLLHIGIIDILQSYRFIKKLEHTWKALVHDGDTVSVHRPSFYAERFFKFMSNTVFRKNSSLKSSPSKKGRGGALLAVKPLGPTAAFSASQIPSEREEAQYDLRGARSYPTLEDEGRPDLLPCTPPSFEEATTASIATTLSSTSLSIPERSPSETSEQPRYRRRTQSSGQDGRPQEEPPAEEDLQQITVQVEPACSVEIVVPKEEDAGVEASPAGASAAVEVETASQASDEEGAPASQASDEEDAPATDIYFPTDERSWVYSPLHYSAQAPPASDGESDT
Chain of Histone-lysine N-methyltransferase KMT5C (Homo sapiens) (Q86Y97 whole entry, looked up): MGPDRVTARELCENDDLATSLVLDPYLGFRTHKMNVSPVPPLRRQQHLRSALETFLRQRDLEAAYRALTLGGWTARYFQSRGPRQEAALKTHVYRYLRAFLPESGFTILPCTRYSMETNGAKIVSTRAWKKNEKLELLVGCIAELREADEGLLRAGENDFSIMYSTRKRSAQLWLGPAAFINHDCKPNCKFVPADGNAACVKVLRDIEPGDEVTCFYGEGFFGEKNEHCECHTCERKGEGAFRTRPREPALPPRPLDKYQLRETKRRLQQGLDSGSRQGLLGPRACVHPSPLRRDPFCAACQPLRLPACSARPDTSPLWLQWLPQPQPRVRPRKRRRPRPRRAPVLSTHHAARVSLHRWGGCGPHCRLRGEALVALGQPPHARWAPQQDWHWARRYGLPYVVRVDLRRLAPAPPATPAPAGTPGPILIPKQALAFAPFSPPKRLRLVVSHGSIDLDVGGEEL
Chain of Calcium/calmodulin-dependent protein kinase type II subunit alpha (Q9UQM7 whole entry): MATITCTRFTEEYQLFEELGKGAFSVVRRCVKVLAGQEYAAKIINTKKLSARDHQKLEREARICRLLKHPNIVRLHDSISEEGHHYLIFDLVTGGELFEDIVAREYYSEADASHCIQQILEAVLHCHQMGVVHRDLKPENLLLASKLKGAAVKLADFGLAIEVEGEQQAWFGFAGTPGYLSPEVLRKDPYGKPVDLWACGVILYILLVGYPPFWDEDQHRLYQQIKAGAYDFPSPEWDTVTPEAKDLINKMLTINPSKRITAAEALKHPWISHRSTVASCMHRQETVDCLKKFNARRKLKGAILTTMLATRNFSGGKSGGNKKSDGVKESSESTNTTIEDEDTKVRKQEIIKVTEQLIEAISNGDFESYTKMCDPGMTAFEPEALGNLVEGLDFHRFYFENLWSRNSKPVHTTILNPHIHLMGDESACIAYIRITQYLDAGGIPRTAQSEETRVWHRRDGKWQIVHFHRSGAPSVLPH
Chain of Serine/threonine-protein kinase PLK2 (Q9NYY3 whole entry, looked up): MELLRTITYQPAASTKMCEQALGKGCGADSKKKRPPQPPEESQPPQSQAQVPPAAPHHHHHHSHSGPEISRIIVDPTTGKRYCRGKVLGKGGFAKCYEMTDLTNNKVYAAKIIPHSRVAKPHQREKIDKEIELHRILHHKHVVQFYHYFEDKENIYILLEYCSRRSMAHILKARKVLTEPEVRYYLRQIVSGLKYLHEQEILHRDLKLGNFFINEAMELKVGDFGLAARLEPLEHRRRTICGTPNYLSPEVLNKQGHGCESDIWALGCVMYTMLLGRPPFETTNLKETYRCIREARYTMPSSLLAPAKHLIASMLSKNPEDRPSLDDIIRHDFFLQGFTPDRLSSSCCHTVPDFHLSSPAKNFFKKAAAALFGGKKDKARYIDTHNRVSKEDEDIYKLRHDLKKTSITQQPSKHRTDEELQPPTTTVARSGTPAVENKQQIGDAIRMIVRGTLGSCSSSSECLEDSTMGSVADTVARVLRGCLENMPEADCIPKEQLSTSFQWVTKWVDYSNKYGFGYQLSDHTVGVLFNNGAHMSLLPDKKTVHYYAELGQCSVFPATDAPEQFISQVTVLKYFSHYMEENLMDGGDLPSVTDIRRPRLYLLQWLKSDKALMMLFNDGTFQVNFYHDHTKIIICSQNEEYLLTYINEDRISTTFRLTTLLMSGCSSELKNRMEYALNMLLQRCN
Chain of Serine/threonine-protein kinase 35 (Homo sapiens) (Q8TDR2 whole entry): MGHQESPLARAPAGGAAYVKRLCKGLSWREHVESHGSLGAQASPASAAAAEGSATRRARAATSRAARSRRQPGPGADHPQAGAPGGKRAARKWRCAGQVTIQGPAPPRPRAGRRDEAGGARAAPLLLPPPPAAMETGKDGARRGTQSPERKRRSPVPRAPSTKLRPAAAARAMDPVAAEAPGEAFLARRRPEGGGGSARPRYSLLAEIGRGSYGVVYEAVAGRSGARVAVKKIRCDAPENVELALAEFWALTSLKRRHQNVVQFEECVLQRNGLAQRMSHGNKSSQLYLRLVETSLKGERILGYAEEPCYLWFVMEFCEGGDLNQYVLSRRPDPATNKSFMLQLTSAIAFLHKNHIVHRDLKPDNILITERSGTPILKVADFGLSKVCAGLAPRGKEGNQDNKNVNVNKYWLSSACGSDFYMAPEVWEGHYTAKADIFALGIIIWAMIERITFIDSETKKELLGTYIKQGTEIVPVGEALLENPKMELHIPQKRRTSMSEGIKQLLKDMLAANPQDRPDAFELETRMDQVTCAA

- dTM [1]: 1.5 K
SMILES: CN(C(=O)c1cnn2cccnc12)c1cc2c(cc1N1CCOCC1)C(=O)N(C[C@@H](F)C(C)(C)O)C2

SMILES: CNC(=O)Nc1ccc(-c2nc(N3CC4CCC(C3)O4)c3cnn(C4CCC5(CC4)OCCO5)c3n2)cc1
- % of control [2]: 100%

SMILES: C=CC(=O)Nc1cc(-n2c(=O)ccc3cnc4ccc(-c5ccc(NS(C)(=O)=O)cc5)cc4c32)ccc1C
- % of control ([3]; at 1 µM): 100%
- % of control ([3]; at 10 µM): 92%

- % of inhibition [4]: 87%
SMILES: Cc1ccc(-c2ccc3c(ccc4sc5c(c43)NC[C@@H](C)NC5=O)n2)cn1

- % activity [5]: > 90%
SMILES: CNCCN1CCC(c2cc(CN(C)C(=O)c3cccc(Oc4ccccc4)c3)ccn2)CC1

SMILES: COc1cc(Nc2nc(C)cc(-c3cnn4nc(OC)ccc34)n2)cc(C(F)(F)F)c1
- % of control [6]: 100%
- % of control [7]: 100%

SMILES: COc1cc(C(=O)N2CC[C@@H](O)[C@@H](N)C2)cc2nc(-c3cc4ccccc4n3CC3CC3)n(C)c12
- pXC50 [8]: < 4.4 M

SMILES: O=C(NOC[C@H](O)CO)c1ccc(F)c(F)c1Nc1ccc(I)cc1F
- % of control [9]: 100%

- % of inhibition [10]: -13.2%
SMILES: Cn1cc(-n2cnc3c(NCc4nc5cc(Cl)c(Cl)cc5[nH]4)nc(N4CCOCC4)nc32)cn1
